Measurements: PubChem BioAssay AID270 (DTP/NCI, 2004)
Values joined by “and” are separate entries in the source; they are usually repeats but may differ in a detail not shown here. Equal entries are not always repeated. Results filed as inconclusive are left out.

System: BDF1 mice, s.c. Lewis lung carcinoma, T/C %
Experiment: NCI In Vivo Anticancer Drug Screen. Data for tumor model Lewis Lung Carcinoma (subcutaneous) in B6D2F1 (BDF1) mice
Outline: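 Antitumor effect in vivo is scored from survival or tumor burden, reported as treated relative to vehicle controls.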

[1] = endpoint: mean tumor weight, dose: 50.0 mg/kg/injection, schedule: Q01DX011 (ip), vehicle: carboxymethylcellulose (CMC), higher = larger tumour

O=C(NP(=O)(N1CC1)N1CC1)c1cc(I)ccc1I
T/C (endpoint: median survival time, dose: 1.0 mg/kg/injection, schedule: Q02DX009 (ip), vehicle: saline with Tween-80, higher = longer survival): 110 % of control
T/C (endpoint: median survival time, dose: 2.0 mg/kg/injection, schedule: Q02DX009 (ip), vehicle: saline with Tween-80, higher = longer survival): 112 % of control
T/C (endpoint: median survival time, dose: 4.0 mg/kg/injection, schedule: Q02DX009 (ip), vehicle: saline with Tween-80, higher = longer survival): 117 % of control
T/C (endpoint: median survival time, dose: 8.0 mg/kg/injection, schedule: Q02DX009 (ip), vehicle: saline with Tween-80, higher = longer survival): 117 % of control
T/C (endpoint: median survival time, dose: 16.0 mg/kg/injection, schedule: Q02DX009 (ip), vehicle: saline with Tween-80, higher = longer survival): 106 % of control
T/C (endpoint: median survival time, dose: 32.0 mg/kg/injection, schedule: Q02DX009 (ip), vehicle: saline with Tween-80, higher = longer survival): 102 % of control
T/C (endpoint: median survival time, dose: 64.0 mg/kg/injection, schedule: Q02DX009 (ip), vehicle: saline with Tween-80, higher = longer survival): 98 % of control

COc1cc([C@@H]2c3cc4c(cc3[C@@H](OC3OC5COC(C)OC5C(O)C3O)[C@H]3COC(=O)[C@H]23)OCO4)cc(OC)c1O (stereo partly specified)
T/C (endpoint: median survival time, dose: 4.0 mg/kg/injection, schedule: Q01DX009 (ip), vehicle: saline, higher = longer survival): 124 % of control
T/C (endpoint: median survival time, dose: 20.0 mg/kg/injection, schedule: Q04DX003 (ip), vehicle: saline, higher = longer survival): 107 % of control
T/C (endpoint: median survival time, dose: 20.0 mg/kg/injection, schedule: Q04DX003 (sc), vehicle: saline, higher = longer survival): 124 % of control
T/C (endpoint: median survival time, dose: 80.0 mg/kg/injection, schedule: Q04DX003 (ip), vehicle: saline, higher = longer survival): 91 % of control

CNC1C(OC2C(OC3C(O)C(O)C(N=C(N)N)C(O)C3N=C(N)N)OC(C)C2(O)C=O)OC(CO)C(O)C1O (stereo unspecified)
T/C (endpoint: median survival time, dose: 50.0 mg/kg/injection, schedule: Q01DX009 (ip), vehicle: water, higher = longer survival): 95 % of control
T/C (endpoint: median survival time, dose: 100.0 mg/kg/injection, schedule: Q01DX009 (ip), vehicle: water, higher = longer survival): 102 % of control
T/C (endpoint: median survival time, dose: 200.0 mg/kg/injection, schedule: Q01DX009 (ip), vehicle: water, higher = longer survival): 105 % of control

O=C1c2c(Cl)c(Cl)c(Cl)c(Cl)c2C(=O)N1c1nccs1
T/C (endpoint: mean tumor weight, dose: 25.0 mg/kg/injection, schedule: Q01DX011 (ip), vehicle: carboxymethylcellulose (CMC), higher = larger tumour): 62 % of control
T/C [1]: 50 % of control

CC1CCC2(NC1)OC1CC3C4CCC5CC(OC6OC(CO)C(OC7OC(CO)C(O)C(OC8OCC(O)C(O)C8O)C7OC7OC(CO)C(O)C(O)C7O)C(O)C6O)CCC5(C)C4CCC3(C)C1C2C (stereo unspecified)
T/C (endpoint: mean tumor weight, dose: 5.0 mg/kg/injection, schedule: Q01DX011 (sc), vehicle: steriod suspending solution, higher = larger tumour): 104 % of control
T/C (endpoint: mean tumor weight, dose: 10.0 mg/kg/injection, schedule: Q01DX011 (sc), vehicle: steriod suspending solution, higher = larger tumour): 77 % of control
T/C (endpoint: mean tumor weight, dose: 20.0 mg/kg/injection, schedule: Q01DX011 (sc), vehicle: steriod suspending solution, higher = larger tumour): 85 % of control
T/C (endpoint: mean tumor weight, dose: 40.0 mg/kg/injection, schedule: Q01DX011 (sc), vehicle: steriod suspending solution, higher = larger tumour): 94 % of control

O=CNCCO
T/C (endpoint: mean tumor weight, dose: 133.0 mg/kg/injection, schedule: Q01DX011 (ip), vehicle: saline, higher = larger tumour): 69 % of control
T/C (endpoint: mean tumor weight, dose: 200.0 mg/kg/injection, schedule: Q01DX011 (ip), vehicle: saline, higher = larger tumour): 79 % of control
T/C (endpoint: mean tumor weight, dose: 300.0 mg/kg/injection, schedule: Q01DX011 (ip), vehicle: saline, higher = larger tumour): 48 % of control
T/C (endpoint: mean tumor weight, dose: 450.0 mg/kg/injection, schedule: Q01DX011 (ip), vehicle: saline, higher = larger tumour): 54 % of control
T/C (endpoint: mean tumor weight, dose: 750.0 mg/kg/injection, schedule: Q01DX011 (ip), vehicle: saline, higher = larger tumour): 81 % of control

c1ccc2cc3c(cc2c1)Cn1c-3nc2ccccc21
T/C [1]: 64 % of control
T/C (endpoint: mean tumor weight, dose: 55.0 mg/kg/injection, schedule: Q01DX011 (ip), vehicle: carboxymethylcellulose (CMC), higher = larger tumour): 33 % of control and 48 % of control
T/C (endpoint: mean tumor weight, dose: 80.0 mg/kg/injection, schedule: Q01DX011 (ip), vehicle: carboxymethylcellulose (CMC), higher = larger tumour): 52 % of control
T/C (endpoint: mean tumor weight, dose: 100.0 mg/kg/injection, schedule: Q01DX011 (ip), vehicle: carboxymethylcellulose (CMC), higher = larger tumour): 23 % of control
T/C (endpoint: mean tumor weight, dose: 120.0 mg/kg/injection, schedule: Q01DX011 (ip), vehicle: carboxymethylcellulose (CMC), higher = larger tumour): 26 % of control
T/C (endpoint: mean tumor weight, dose: 180.0 mg/kg/injection, schedule: Q01DX011 (ip), vehicle: carboxymethylcellulose (CMC), higher = larger tumour): 34 % of control
T/C (endpoint: mean tumor weight, dose: 200.0 mg/kg/injection, schedule: Q01DX011 (ip), vehicle: carboxymethylcellulose (CMC), higher = larger tumour): 37 % of control
T/C (endpoint: mean tumor weight, dose: 400.0 mg/kg/injection, schedule: Q01DX011 (ip), vehicle: carboxymethylcellulose (CMC), higher = larger tumour): 38 % of control

CC1CN1P(=S)(N1CC1C)N1CC1C (stereo unspecified)
T/C (endpoint: mean tumor weight, dose: 9.0 mg/kg/injection, schedule: Q01DX011 (ip), vehicle: carboxymethylcellulose (CMC), higher = larger tumour): 87 % of control
T/C (endpoint: mean tumor weight, dose: 17.5 mg/kg/injection, schedule: Q01DX011 (ip), vehicle: carboxymethylcellulose (CMC), higher = larger tumour): 72 % of control
T/C (endpoint: mean tumor weight, dose: 53.0 mg/kg/injection, schedule: Q01DX011 (ip), vehicle: carboxymethylcellulose (CMC), higher = larger tumour): 23 % of control

COC(=O)C[C@](O)(CCC(C)(C)O)C(=O)O[C@@H]1C(OC)=C[C@]23CCCN2CCc2cc4c(cc2[C@H]13)OCO4
T/C (endpoint: mean tumor weight, dose: 0.25 mg/kg/injection, schedule: Q01DX011 (ip), vehicle: saline, higher = larger tumour): 71 % of control
T/C (endpoint: mean tumor weight, dose: 0.5 mg/kg/injection, schedule: Q01DX011 (ip), vehicle: saline, higher = larger tumour): 85 % of control
T/C (endpoint: mean tumor weight, dose: 2.0 mg/kg/injection, schedule: Q01DX011 (ip), vehicle: saline, higher = larger tumour): 68 % of control

COc1ccc(-c2cc(=O)c3c(O)c(OC)c(OC)c(OC)c3o2)cc1
T/C (endpoint: mean tumor weight, dose: 12.5 mg/kg/injection, schedule: Q01DX011 (ip), vehicle: saline, higher = larger tumour): 95 % of control
T/C (endpoint: mean tumor weight, dose: 25.0 mg/kg/injection, schedule: Q01DX011 (ip), vehicle: saline, higher = larger tumour): 100 % of control
T/C (endpoint: mean tumor weight, dose: 50.0 mg/kg/injection, schedule: Q01DX011 (sc), vehicle: steriod suspending solution, higher = larger tumour): 63 % of control
T/C (endpoint: mean tumor weight, dose: 100.0 mg/kg/injection, schedule: Q01DX011 (sc), vehicle: steriod suspending solution, higher = larger tumour): 90 % of control

C1=Cc2ccccc2CC1
T/C (endpoint: mean tumor weight, dose: 133.0 mg/kg/injection, schedule: Q01DX011 (ip), vehicle: other, higher = larger tumour): 121 % of control
T/C (endpoint: mean tumor weight, dose: 200.0 mg/kg/injection, schedule: Q01DX011 (ip), vehicle: other, higher = larger tumour): 46 % of control
T/C (endpoint: mean tumor weight, dose: 300.0 mg/kg/injection, schedule: Q01DX011 (ip), vehicle: other, higher = larger tumour): 45 % of control

O=NN(CCCl)C(=O)NC1CCC(CC2CCC(NC(=O)N(CCCl)N=O)CC2)CC1 (stereo unspecified)
T/C (endpoint: median tumor weight (est.), dose: 46.0 mg/kg/injection, schedule: Q01DX001 (ip), vehicle: gum acacia, higher = larger tumour): 80 % of control
T/C (endpoint: median tumor weight (est.), dose: 93.0 mg/kg/injection, schedule: Q01DX001 (ip), vehicle: gum acacia, higher = larger tumour): 76 % of control
T/C (endpoint: median tumor weight (est.), dose: 187.0 mg/kg/injection, schedule: Q01DX001 (ip), vehicle: gum acacia, higher = larger tumour): 55 % of control
T/C (endpoint: median tumor weight (est.), dose: 250.0 mg/kg/injection, schedule: Q01DX001 (ip), vehicle: gum acacia, higher = larger tumour): 10 % of control
T/C (endpoint: median tumor weight (est.), dose: 375.0 mg/kg/injection, schedule: Q01DX001 (ip), vehicle: gum acacia, higher = larger tumour): 3 % of control

CN(C1=NS(=O)(=O)N=C(N(C)c2ccccc2)O1)c1ccccc1
T/C (endpoint: median survival time, dose: 14.37 mg/kg/injection, schedule: Q01DX009 (ip), vehicle: Klucel (hydroxypropylcellulose) (HPC), higher = longer survival): 111 % of control
T/C (endpoint: median survival time, dose: 28.75 mg/kg/injection, schedule: Q01DX009 (ip), vehicle: Klucel (hydroxypropylcellulose) (HPC), higher = longer survival): 104 % of control
T/C (endpoint: median survival time, dose: 57.5 mg/kg/injection, schedule: Q01DX009 (ip), vehicle: Klucel (hydroxypropylcellulose) (HPC), higher = longer survival): 103 % of control
T/C (endpoint: median survival time, dose: 115.0 mg/kg/injection, schedule: Q01DX009 (ip), vehicle: Klucel (hydroxypropylcellulose) (HPC), higher = longer survival): 100 % of control
T/C (endpoint: median survival time, dose: 230.0 mg/kg/injection, schedule: Q01DX009 (ip), vehicle: Klucel (hydroxypropylcellulose) (HPC), higher = longer survival): 96 % of control

O=P(c1ccccc1)(c1ccccc1)P(=O)(c1ccccc1)c1ccccc1
T/C (endpoint: mean tumor weight, dose: 33.0 mg/kg/injection, schedule: Q01DX011 (ip), vehicle: other, higher = larger tumour): 117 % of control
T/C (endpoint: mean tumor weight, dose: 66.0 mg/kg/injection, schedule: Q01DX011 (ip), vehicle: other, higher = larger tumour): 79 % of control
T/C (endpoint: mean tumor weight, dose: 100.0 mg/kg/injection, schedule: Q01DX011 (ip), vehicle: other, higher = larger tumour): 61 % of control
T/C (endpoint: mean tumor weight, dose: 150.0 mg/kg/injection, schedule: Q01DX011 (ip), vehicle: other, higher = larger tumour): 94 % of control
T/C (endpoint: mean tumor weight, dose: 200.0 mg/kg/injection, schedule: Q01DX011 (ip), vehicle: methylcellulose (MC), higher = larger tumour): 87 % of control
T/C (endpoint: mean tumor weight, dose: 300.0 mg/kg/injection, schedule: Q01DX011 (ip), vehicle: methylcellulose (MC), higher = larger tumour): 38 % of control

CCOCCCN
T/C (endpoint: mean tumor weight, dose: 44.0 mg/kg/injection, schedule: Q01DX011 (ip), vehicle: saline, higher = larger tumour): 106 % of control
T/C (endpoint: mean tumor weight, dose: 66.0 mg/kg/injection, schedule: Q01DX011 (ip), vehicle: saline, higher = larger tumour): 97 % of control
T/C (endpoint: mean tumor weight, dose: 100.0 mg/kg/injection, schedule: Q01DX011 (ip), vehicle: saline, higher = larger tumour): 123 % of control
T/C (endpoint: mean tumor weight, dose: 148.0 mg/kg/injection, schedule: Q01DX011 (ip), vehicle: saline, higher = larger tumour): 101 % of control
